Key:
Format in all cases: in vivo
[1] = test system: Puccinia recondita f. sp. tritici (PUCCRT); test: Drop Line Test on wheat leaf, Brown Rust of Wheat; conditions: Drop Line Test 0.5 μg/leaf, 2 microliter drop
Experimental: Wheat (cultivar Monon) was grown in plastic pots (6.2 cm×8.75 cm) containing 50 percent mineral soil, 50 percent Metro-Mix 360 (W.R Grace and Co.) until the seedlings were 10-20 cm tall. These plants were then sprayed to runoff with the test compound at a rate of 200 ppm. After 24 hours the test plants were inoculated by spraying with an aqueous spore suspension of Puccinia recondita f. sp. tritici (PUCCRT). The plants were then transferred to a dew chamber for 24 hours, then to the greenhouse until disease developed on the untreated control plants. In Example 3, a Drop Line Test was used, wherein instead of spraying the plant to runoff, a 2 microliter drop was placed on the wheat leaf and observed for disease control.

[2] = test system: Venturia inaequalis (VENTIN); test: One day protectant (1 DP) test, Apple Scab; conditions: 0.1 percent Spraymate X77 + 0.1 percent ammonium sulfate
[3] = test system: Venturia inaequalis (VENTIN); test: Curative test, Apple Scab (compound added 2 days after inoculation); conditions: curative at 200 ppm

Row | SMILES | PUCCRT percent control of plant disease, Drop Line Test [1] | VENTIN percent control of plant disease ([2]; 50 ppm and 100 ppm) | VENTIN percent control of plant disease ([2]; rate 200 ppm) | VENTIN percent control of plant disease, curative [3]
1 | C[C@H](N)C(=O)NC(CC(=O)O)(CC(=O)C1=C(O)[C@H](CN)NC1=O)C(=O)O (stereo partly shown) [Compound III] | + (+ = 30-74 percent control of plant disease) |  |  | 
2 | NC[C@@H]1NC(=O)C(C(=O)CC(NC(=O)[C@@H](N)CO)(C(=O)O)C(=O)O)=C1O [Compound I, {[(2S)-2-amino-3-hydroxypropanoyl]amino}{2-[(5S)-5-(aminomethyl)-4-hydroxy-2-oxo-2,5-dihydro-1H-pyrrol-3-yl]-2-oxoethyl}malonic acid] |  | ++ (++ = 75-100 percent control of plant disease) | + (+ = 30-74 percent control of plant disease) | ++^α (++ = 75-100 percent control of plant disease)

Reference: patent publication US7887827B2, “Use of malonomicin and analogs in fungicidal applications” (Dow AgroSciences LLC, priority 2006, dated 2011)
